The assay has as its target STAT3 (Homo sapiens, UniProt P40763). In words: STAT3 HiBiT degradation assay in transfected A549 cells. It counts as cell-based. Also on record: expressed in transfected cells; host or cells: A549. A digest of the protocol:
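Transfected A549 cells (~2000/well) plated 24 h, then treated 24 h at 37 °C, 5% CO2 with a 3-fold, 10-point compound dilution. HiBiT lytic luminescence read after 10 min at room temperature; remaining STAT3 normalized to negative and positive controls, four-parameter fit. DC50 binned A <0.01, B 0.01–0.1, C 0.1–1.0, D >1.0 µM.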
Background: HiBiT is a short tag that completes a luciferase, so light tracks the accessible tagged protein.

The mark [1] stands for this setting: A549, 24 h; read-out: STAT3 HiBiT A549 degradation 24 h: Average external-Abs DC50.

The text below walks through data of patent US12077555B2, “STAT degraders and uses thereof” (Kymera Therapeutics, Inc., priority 2019, dated 2024).

Each structure is given as a SMILES string. Where two headings read alike, the source gives them in different places.

Chain of STAT3 (P40763 whole entry): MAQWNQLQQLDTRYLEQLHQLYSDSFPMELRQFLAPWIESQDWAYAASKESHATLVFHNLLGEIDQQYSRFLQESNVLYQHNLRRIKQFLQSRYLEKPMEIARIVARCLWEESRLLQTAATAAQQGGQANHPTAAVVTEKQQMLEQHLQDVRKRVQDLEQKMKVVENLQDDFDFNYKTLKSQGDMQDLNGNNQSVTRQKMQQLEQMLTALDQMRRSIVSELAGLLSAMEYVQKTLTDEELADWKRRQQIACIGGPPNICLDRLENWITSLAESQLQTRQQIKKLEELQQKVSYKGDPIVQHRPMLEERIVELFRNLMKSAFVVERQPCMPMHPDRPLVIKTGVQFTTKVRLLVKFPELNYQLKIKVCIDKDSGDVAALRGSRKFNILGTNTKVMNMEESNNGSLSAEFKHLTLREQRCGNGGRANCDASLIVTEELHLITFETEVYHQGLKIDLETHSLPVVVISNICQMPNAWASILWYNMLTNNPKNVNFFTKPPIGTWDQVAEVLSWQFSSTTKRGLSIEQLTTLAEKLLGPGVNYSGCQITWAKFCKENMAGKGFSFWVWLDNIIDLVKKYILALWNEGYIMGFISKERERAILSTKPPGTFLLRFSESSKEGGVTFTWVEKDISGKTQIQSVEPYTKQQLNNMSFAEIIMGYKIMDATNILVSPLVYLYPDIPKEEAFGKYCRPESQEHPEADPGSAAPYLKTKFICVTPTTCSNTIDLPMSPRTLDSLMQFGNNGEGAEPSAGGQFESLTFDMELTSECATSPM

For orientation: DC50 means the concentration at which degradation of the target reaches its halfway point. As to `Cn1c(=O)n(C2CCC(=O)NC2=O)c2ccc([C@H]3CC[C@@H](CCCC(=O)N4CC[C@H]5CC[C@@H](C(=O)N[C@@H](CCC(N)=O)C(=O)NC(c6ccccc6)c6ccccc6)N5C(=O)[C@@H](NC(=O)c5cc6cc(C(=O)P(=O)(O)O)ccc6[nH]5)C4)CC3)cc21` (stereo partly drawn) [Compound I-274, 2-[[(5S,8S,10aR)-8-[[(1S)-3-carbamoyl-1-(diphenylmethylcarbamoyl)propyl]carbamoyl]-6-oxo-3-[4-[(1s,4r)-4-[1-(2,6-dioxopiperidin-3-yl)-3-methyl-2-oxo-1,3-benzodiazol-5-yl]cyclohexyl]butanoyl]-octahydropyrrolo[1,2-a][1,5]diazocin-5-yl]carbamoyl]-1H-indole-5-carbonylphosphonic acid], the DC50 under setting [1] was 100 to 1000 nM.

As to `Cc1cc(CCCCC(=O)N[C@H](C(=O)N2C[C@H](O)C[C@H]2C(=O)N[C@@H](C)c2ccc(-c3scnc3C)cc2)C(C)(C)C)ccc1CO[C@H](C)[C@H](CCC(N)=O)NC(=O)[C@@H]1Cc2cccc3c2N1C(=O)[C@@H](NC(=O)c1cc2cc(C(=O)P(=O)(O)O)ccc2[nH]1)CC3` [Compound I-226, 2-[[(2S,11S)-2-[[(3S,4R)-1-carbamoyl-4-[[4-(4-[[(2S)-1-[(2S,4R)-4-hydroxy-2-[[(1S)-1-[4-(4-methyl-1,3-thiazol-5-yl)phenyl]ethyl]carbamoyl]pyrrolidin-1-yl]-3,3-dimethyl-1-oxobutan-2-yl]carbamoyl]butyl)-2-methylphenyl]methoxy]pentan-3-yl]carbamoyl]-12-oxo-1-azatricyclo[6.4.1.0^[4,13]]trideca-4(13),5,7-trien-11-yl]carbamoyl]-1H-indole-5-carbonylphosphonic acid], the DC50 under setting [1] fell in the range of 10 to 100 nM.

For `CC(=O)N1CC[C@H]2CC[C@@H](C(=O)N[C@@H](CCC(N)=O)COc3cc(C)cc(CCCCC(=O)N[C@H](C(=O)N4C[C@H](O)C[C@H]4C(=O)N[C@@H](C)c4ccc(-c5scnc5C)cc4)C(C)(C)C)c3F)N2C(=O)[C@@H](NC(=O)c2cc3cc(C(=O)P(=O)(O)O)ccc3[nH]2)C1` [Compound I-236, diammonium 2-[[(5S,8S,10aR)-3-acetyl-8-[[(2S)-4-carbamoyl-1-[2-fluoro-3-(4-[[(2S)-1-[(2S,4R)-4-hydroxy-2-[[(1S)-1-[4-(4-methyl-1,3-thiazol-5-yl)phenyl]ethyl]carbamoyl]pyrrolidin-1-yl]-3,3-dimethyl-1-oxobutan-2-yl]carbamoyl]butyl)-5-methylphenoxy]butan-2-yl]carbamoyl]-6-oxo-octahydropyrrolo[1,2-a][1,5]diazocin-5-yl]carbamoyl]-1H-indole-5-carbonylphosphonate], the DC50 (read-out: STAT3 HiBiT A549 degradation 24 h: Average external-Abs DC50; A549, 24 h) was 100 to 1000 nM.

In the case of `Cn1c(=O)n(C2CCC(=O)NC2=O)c2ccc([C@H]3CC[C@@H](CCC(=O)N4CC[C@H]5CC[C@@H](C(=O)N[C@@H](CCC(N)=O)C(=O)NC(c6ccccc6)c6ccccc6)N5C(=O)[C@@H](NC(=O)c5cc6cc(C(=O)P(=O)(O)O)ccc6[nH]5)C4)CC3)cc21` (stereo partly drawn) [Compound I-273, 2-[[(5S,8S,10aR)-8-[[(1S)-3-carbamoyl-1-(diphenylmethylcarbamoyl)propyl]carbamoyl]-6-oxo-3-[3-[(1s,4s)-4-[1-(2,6-dioxopiperidin-3-yl)-3-methyl-2-oxo-1,3-benzodiazol-5-yl]cyclohexyl]propanoyl]-octahydropyrrolo[1,2-a][1,5]diazocin-5-yl]carbamoyl]-1H-indole-5-carbonylphosphonic acid], under setting [1], the DC50 was 100 to 1000 nM.

`Cc1ncsc1-c1ccc([C@H](C)NC(=O)[C@@H]2C[C@@H](O)CN2C(=O)[C@@H](NC(=O)CCCCCc2cccc(OC[C@H](CCC(N)=O)NC(=O)[C@@H]3Cc4cccc5c4N3C(=O)[C@@H](NC(=O)c3cc4cc(C(=O)P(=O)(O)O)ccc4[nH]3)CC5)c2F)C(C)(C)C)cc1` [Compound I-217, 2-[[(2S,11S)-2-[[(2S)-4-carbamoyl-1-[2-fluoro-3-(5-[[(2S)-1-[(2S,4R)-4-hydroxy-2-[[(1S)-1-[4-(4-methyl-1,3-thiazol-5-yl)phenyl]ethyl]carbamoyl]pyrrolidin-1-yl]-3,3-dimethyl-1-oxobutan-2-yl]carbamoyl]pentyl)phenoxy]butan-2-yl]carbamoyl]-12-oxo-1-azatricyclo[6.4.1.0^[4,13]]trideca-4(13),5,7-trien-11-yl]carbamoyl]-1H-indole-5-carbonylphosphonic acid]: the DC50 under setting [1] is under 10 nM.

`Cn1c(=O)n(C2CCC(=O)NC2=O)c2ccc(N3CCN(CCC(=O)N4CC[C@H]5CC[C@@H](C(=O)N[C@@H](CCC(N)=O)C(=O)NC(c6ccccc6)c6ccccc6)N5C(=O)[C@@H](NC(=O)c5cc6cc(C(=O)P(=O)(O)O)ccc6[nH]5)C4)CC3)cc21` (stereo partly drawn) [Compound I-175, 2-[[(5S,8S,10aR)-8-[[(1S)-3-carbamoyl-1-(diphenylmethylcarbamoyl)propyl]carbamoyl]-3-(3-[4-[1-(2,6-dioxopiperidin-3-yl)-3-methyl-2-oxo-1,3-benzodiazol-5-yl]piperazin-1-yl]propanoyl)-6-oxo-octahydropyrrolo[1,2-a][1,5]diazocin-5-yl]carbamoyl]-1H-indole-5-carbonylphosphonic acid]: the DC50 under setting [1] lay in the range of 100 to 1000 nM.

Turning to `Cc1ncsc1-c1ccc([C@H](C)NC(=O)[C@@H]2C[C@@H](O)CN2C(=O)[C@@H](NC(=O)CCCCCc2cccc(OC[C@H](CCC(N)=O)NC(=O)[C@@H]3CCCN3C(=O)[C@H](CC(C)C)NC(=O)c3cc4cc(C(=O)P(=O)(O)O)ccc4[nH]3)c2F)C(C)(C)C)cc1` [Compound I-279], under setting [1], the DC50 was under 10 nM.

For the molecule `Cc1ncsc1-c1ccc(CNC(=O)[C@@H]2C[C@@H](O)CN2C(=O)[C@@H](NC(=O)CCCc2ccc(CNC(=O)[C@H](CCC(N)=O)NC(=O)[C@@H]3Cc4cccc5c4N3C(=O)[C@@H](NC(=O)c3cc4cc(C(=O)P(=O)(O)O)ccc4[nH]3)CC5)cc2)C(C)(C)C)cc1` [Compound I-138], the DC50 under setting [1] was over 1000 nM.

For the molecule `Cn1c(=O)n(C2CCC(=O)NC2=O)c2ccc(C3CCN(CCC(=O)N4CC[C@H]5CC[C@@H](C(=O)N[C@@H](CCC(N)=O)C(=O)NC(c6ccccc6)c6ccccc6)N5C(=O)[C@@H](NC(=O)c5cc6cc(C(=O)P(=O)(O)O)ccc6[nH]5)C4)CC3)cc21` (stereo partly drawn) [Compound I-177, 2-[[(5S,8S,10aR)-8-[[(1S)-3-carbamoyl-1-(diphenylmethylcarbamoyl)propyl]carbamoyl]-3-(3-[4-[1-(2,6-dioxopiperidin-3-yl)-3-methyl-2-oxo-1,3-benzodiazol-5-yl]piperidin-1-yl]propanoyl)-6-oxo-octahydropyrrolo[1,2-a][1,5]diazocin-5-yl]carbamoyl]-1H-indole-5-carbonylphosphonic acid], the DC50 under setting [1] was 100 to 1000 nM.

On to `Cc1ncsc1-c1ccc(CNC(=O)[C@@H]2C[C@@H](O)CN2C(=O)[C@@H](NC(=O)CN2CCC(Cc3ccc(CO[C@H](C)[C@H](CCC(N)=O)NC(=O)[C@@H]4Cc5cccc6c5N4C(=O)[C@@H](NC(=O)c4cc5cc(C(=O)P(=O)(O)O)ccc5[nH]4)CC6)cc3)CC2)C(C)(C)C)cc1` [Compound I-178], for which the DC50 under setting [1] was over 1000 nM.

`Cc1ncsc1-c1ccc(CNC(=O)[C@@H]2C[C@@H](O)CN2C(=O)[C@@H](NC(=O)Cc2cccc(-c3ccc(CO[C@H](C)[C@H](CCC(N)=O)NC(=O)[C@@H]4Cc5cccc6c5N4C(=O)[C@@H](NC(=O)c4cc5cc(C(=O)P(=O)(O)O)ccc5[nH]4)CC6)cc3)c2)C(C)(C)C)cc1` [Compound I-145, 2-[[(2S,11S)-2-[[(3S,4R)-1-carbamoyl-4-[[3'-([[(2S)-1-[(2S,4R)-4-hydroxy-2-([[4-(4-methyl-1,3-thiazol-5-yl)phenyl]methyl]carbamoyl)pyrrolidin-1-yl]-3,3-dimethyl-1-oxobutan-2-yl]carbamoyl]methyl)-[1,1'-biphenyl]-4-yl]methoxy]pentan-3-yl]carbamoyl]-12-oxo-1-azatricyclo[6.4.1.0^[4,13]]trideca-4(13),5,7-trien-11-yl]carbamoyl]-1H-indole-5-carbonylphosphonic acid]: the DC50 under setting [1] was over 1000 nM.

For `Cn1c(=O)n(C2CCC(=O)NC2=O)c2ccc(CC[C@H]3CC[C@@H](C(=O)N4CC[C@H]5CC[C@@H](C(=O)N[C@@H](CCC(N)=O)C(=O)NCc6ccc(S(C)(=O)=O)cc6)N5C(=O)[C@@H](NC(=O)c5cc6cc(C(=O)P(=O)(O)O)ccc6[nH]5)C4)CC3)cc21` (stereo partly drawn) [Compound I-294, (2-(((5S,8S,10aR)-8-(((S)-5-amino-1-((4-(methylsulfonyl)benzyl)amino)-1,5-dioxopentan-2-yl)carbamoyl)-3-((1r,4R)-4-(2-(1-(2,6-dioxopiperidin-3-yl)-3-methyl-2-oxo-2,3-dihydro-1H-benzo[d]imidazol-5-yl)ethyl)cyclohexane-1-carbonyl)-6-oxodecahydropyrrolo[1,2-a][1,5]diazocin-5-yl)carbamoyl)-1H-indole-5-carbonyl)phosphonic acid], the DC50 under setting [1] is under 10 nM.

Regarding `Cc1ncsc1-c1ccc(CNC(=O)[C@@H]2C[C@@H](O)CN2C(=O)[C@@H](NC(=O)CCCc2ccc3cc(CO[C@H](C)[C@H](CCC(N)=O)NC(=O)[C@@H]4Cc5cccc6c5N4C(=O)[C@@H](NC(=O)c4cc5cc(C(=O)P(=O)(O)O)ccc5[nH]4)CC6)ccc3c2)C(C)(C)C)cc1` [Compound I-127, diammonium 2-[[(2S,11S)-2-[[(3S,4R)-1-carbamoyl-4-[[6-(3-[[(2S)-1-[(2S,4R)-4-hydroxy-2-([[4-(4-methyl-1,3-thiazol-5-yl)phenyl]methyl]carbamoyl)pyrrolidin-1-yl]-3,3-dimethyl-1-oxobutan-2-yl]carbamoyl]propyl)naphthalen-2-yl]methoxy]pentan-3-yl]carbamoyl]-12-oxo-1-azatricyclo[6.4.1.0^[4,13]]trideca-4(13),5,7-trien-11-yl]carbamoyl]-1H-indole-5-carbonylphosphonate], under setting [1], the DC50 fell in the range of 100 to 1000 nM.

Turning to `Cc1ncsc1-c1ccc([C@H](C)NC(=O)[C@@H]2C[C@@H](O)CN2C(=O)[C@@H](NC(=O)CCCc2cccc(OC[C@H](CCC(N)=O)NC(=O)[C@@H]3Cc4cccc5c4N3C(=O)[C@@H](NC(=O)c3cc4cc(C(=O)P(=O)(O)O)ccc4[nH]3)CC5)c2Cl)C(C)(C)C)cc1` [Compound I-253], the DC50 under setting [1] is under 10 nM.
